EP3441076A1, “PHARMACEUTICAL PRODUCT FOR TREATING TUMOR AND COMBINED IMMUNE DEFECT, AND PREPARATION AND APPLICATION THEREOF” (Beijing Lu De Kai Qi Co., Ltd., priority 2016, dated 2017)
Like-named read-outs stand apart in the source and are kept apart here. Marks after values point to notes of the source that are not given here.

What was measured:
[1] = system: polychromatic erythrocytes in bone marrow of mice; conditions: for Number of micronucleus (in Ge) / Micronucleus rate: 50 mg/kg•bw, positive control; for Number of micronucleus (in Ge): 5000 cells examined; for Micronucleus rate: P<0.01 vs negative control
Protocol: The walnut extract, the wormwood extract, and the clove bud extract were respectively subjected to a water bath at 70°C for 1 hour, soaked for 12 hours, and concentrated for testing.
(§1) The healthy Kunming mice provided by the Experimental Animal Center of the National Institute for the Control of Pharmaceutical and Biological Products were selected.
The test was carried out via oral gavage and the administration was performed twice at intervals of 24 hrs. 50 mice weighing 25-30 g were randomly divided into 5 groups according to body weight, 10 in each group, half male and half female. […] The doses of the anti-tumor pharmaceutical product for combined immunization according to the present invention were 1.25, 2.50, and 5.00 g/kg•bw, respectively, and the desired concentrations were adjusted with distilled water. The animals were sacrificed by cervical dislocation six hours after the last administration of the anti-tumor pharmaceutical product for combined immunization according to the present invention. The bone marrow of sternum was acquired and diluted with calf serum, smeared, fixed with methanol, and stained with Giemsa. Under the light microscope, 1000 polychromatic erythrocytes (PRC) were counted per animal, and the incidence of micronucleus was calculated by the permillage of micronucleus-containing PRC and statistically processed.

[2] = all dose groups, statistical comparison with distilled water group

Protocol for sperm: Test materials: The walnut extract, the wormwood extract, and the clove bud extract were all prepared in the same manner as in Example 1. The walnut extract, the wormwood extract, and the clove bud extract were respectively subjected to a water bath at 70°C for 1 hour, soaked for 12 hours, and concentrated for testing.
as §1
Fifty sexually mature male mice weighing 30-35 g were randomly divided into 5 groups. […] The doses of the anti-tumor pharmaceutical product for combined immunization according to the present invention were 1.25, 2.50, and 5.00 g/kg•bw, and the desired concentration were adjusted with distilled water. The mice were administered via oral gavage once a day for 5 days, and the animals were sacrificed 30 days after the last gavage. The epididymis was acquired and sectioned and stained with eosin. Five animals were counted in each group and 1000 intact sperm were counted per animal. The incidence of sperm abnormality (in percentage) was calculated and statistically processed.

## O=P1(N(CCCl)CCCl)NCCCO1 (centres unmarked) [cp, cyclophosphamide]
[1]; Female mice
  Number of micronucleus (in Ge): 144
  Micronucleus rate: 28.8* ‰
[1]; Male mice
  Number of micronucleus (in Ge): 164
  Micronucleus rate: 32.8* ‰
[1]; [2]
  difference in micronucleus rate from the negative control group: extremely significant
sperm; [2]
  difference in incidence of sperm abnormality from the negative control group: extremely significant
sperm; male mice, 40 mg/kg•bw, positive control, 5000 sperms examined
  Number of abnormal sperms (in Ge): 517
sperm; male mice, 40 mg/kg•bw, positive control, P<0.01 vs negative control
  Rate of sperm abnormality: 10.34* %
